Measurements published in patent publication US12441734B2, “Ferroptosis inhibitor and use therefor” (JICHI MEDICAL UNIVERSITY, priority 2021, dated 2025).
Entries after “also recorded” stand apart in the source; their conditions may differ.

Key:
[1] = target: dopamine D2 receptor (Homo sapiens (Human), UniProt P14416); assay: Test IV: dopamine D2 receptor binding activity (GeneBLAzer D2-Gqo5-NEAT-bla CHO-K1 Cell-based Assay); settings: for Dopamine D2 receptor binding activity, Activity intensity: CHO-K1 reporter cells, 5 hours
Chain of dopamine D2 receptor (P14416 whole entry): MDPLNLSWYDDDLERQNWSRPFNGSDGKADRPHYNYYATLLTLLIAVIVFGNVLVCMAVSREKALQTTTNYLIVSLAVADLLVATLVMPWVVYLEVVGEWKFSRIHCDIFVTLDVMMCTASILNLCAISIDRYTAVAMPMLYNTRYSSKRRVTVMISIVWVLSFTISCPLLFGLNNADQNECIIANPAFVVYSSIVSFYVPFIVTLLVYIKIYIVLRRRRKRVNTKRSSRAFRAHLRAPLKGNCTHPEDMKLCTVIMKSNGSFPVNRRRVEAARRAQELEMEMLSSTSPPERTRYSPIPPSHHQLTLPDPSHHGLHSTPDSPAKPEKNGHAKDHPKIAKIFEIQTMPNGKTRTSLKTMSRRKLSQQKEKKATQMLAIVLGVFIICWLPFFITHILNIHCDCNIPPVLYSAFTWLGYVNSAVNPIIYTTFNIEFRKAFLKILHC
Description: In this test, the dopamine D2 receptor binding activity of each test compound was measured using GeneBLAzer D2-Gqo5-NEAT-bla CHO-K1 Cell-based Assay (Thermo Fisher Scientific, Inc.). The CHO cells are designed such that a signal transduction pathway is activated by addition of a drug to express a reporter gene (P lactamase). […] Therefore, the binding activity of the test compound can be measured by measuring a blue fluorescence/green fluorescence ratio. The CHO cells were inoculated at 10,000 cells/well to a 384-well plate and cultured for 16 to 20 hours in a CO2 incubator. […] A substrate mix was added to the cells and incubated at room temperature for 2 hours. […] The respective EC50 values of the test compounds were determined from the measured fluorescence ratios using GraphPad Prism 8.

[2] = system: mitochondrial cardiomyopathy patient cells (ME250-1); assay: Test I: suppression of RSL-3-induced cell death, mitochondrial cardiomyopathy patient cells; format: cell-based, human; settings: 10-140 nM RSL-3 alone or coadded with drug; FIG. 8B
Text: (§1) In the drawing, the abscissa depicts test compounds, and the ordinate depicts the cell viability (%) of each treated plot when the number of live cells in a control non-supplemented with RSL-3 is defined as 100%.

[3] = system: human liver cancer cell line (Huh7); assay: Test V: suppression of RSL-3-induced cell death in liver cancer cell system (LDH, MTT); format: cell-based; parameters: key to LDH (LDH activity, cell death): relative to control without RSL-3 (= 1); settings: for viability at 1 µM: Homo sapiens, Huh-7, read-out: MTT (cell proliferation and cell viability); for viability at 1 µM / LDH (LDH activity, cell death) / MTT (cell proliferation and cell viability): Huh7, test compound 1 μM (GSK872 5 μM) 1 hour, then RSL-3 0.5 μM 24 hours, relative value, control non-supplemented with RSL-3 = 1; for cell death induced by RSL-3 (in words): Huh7, RSL-3 0.5 μM
Description: The ferroptosis inducer used was RSL-3.
At the stage where 70% confluency was attained, the medium was replaced with the medium for the test, and DMSO or each test compound (final concentration of GSK872: 5 μM, and final concentration of the other compounds: 1 μM) was added to the cells in each well, which were then cultured for 1 hour. Then, the ferroptosis inducer (final concentration: 0.5 μM) was added to the cells in each well, which were then cultured for 24 hours. After the completion of culture, cell death suppressive activity was measured with lactate dehydrogenase (LDH) activity as an index while cell proliferation and cell viability were measured with activity of reducing yellow tetrazolium salt (MTT) into formazan as an index.
The values in the table are relative values when the LDH activity and MTT value of a control non-supplemented with RSL-3 are each defined as 1.

[4] = system: mitochondrial hepatopathy patient cells (ME263-1); assay: Test I: suppression of RSL-3-induced cell death, mitochondrial hepatopathy patient cells; format: cell-based, human; settings: 10-140 nM RSL-3 coadded with drug; FIG. 9B
[5] = system: mitochondrial cardiomyopathy patient cells (ME250-1); assay: Test I: suppression of BSO-induced cell death, mitochondrial cardiomyopathy patient cells; format: cell-based, human; settings: 50-200 μM BSO alone or coadded with drug; FIG. 5B
[6] = system: Kearns-Sayre syndrome (KSS) patient cells (ME130-1); assay: Test I: suppression of BSO-induced cell death, KSS patient cells; settings: BSO coadded with drug; FIG. 7B
[7] = system: Leigh syndrome patient cells (LS^ND3); assay: Test I: suppression of BSO-induced cell death, Leigh syndrome patient cells; format: cell-based, human; settings: 100 μM BSO alone or coadded with inhibitor (1 μM; GSK872 1-10 μM, v-VAD 1, 10 μM), 48 hours; FIG. 1B, 3B
Text: (§2) In the drawing, the abscissa depicts test compounds, and the ordinate depicts the cell viability (%) of each treated plot when the number of live cells in a control non-supplemented with BSO is defined as 100%.
as §2

[8] = system: mitochondrial hepatopathy patient cells (ME263-1); assay: Test I: suppression of BSO-induced cell death, mitochondrial hepatopathy patient cells; settings: 50-200 μM BSO coadded with drug; FIG. 6B
[9] = system: Leigh syndrome patient cells (LS^ND3); assay: Test I: suppression of RSL-3-induced cell death, Leigh syndrome patient cells; format: cell-based, human; settings: 50 nM RSL-3 alone or coadded with inhibitor, 48 hours, FIG. 2B, 4B
Text: as §1, §1

[10] = system: normal cells (Promo1 cells); assay: Test I: RSL-3 and test compounds on normal cells; format: cell-based, human; settings: RSL-3 alone or coadded with inhibitor, 48 hours; FIG. 4A, 8A
Text: as §1, §1, §1

[11] = system: SH-SY5Y cells; assay: Test VI: inhibition of rotenone-induced neuronal death (LDH assay); format: cell-based, human; parameters: key: ++: the case where a concentration-dependent inhibitory effect on rotenone-induced cell death was able to be confirmed twice; +: In the third test, the case where the concentration-dependent inhibitory effect was able to be confirmed; ±: the case where no concentration-dependent inhibitory effect was able to be confirmed; −: The case where any inhibitory effect on rotenone-induced cell death was able to be confirmed in none of the two tests; settings: rotenone 1 μM, compound 10 nM-10 μM (Apo 0.1 nM-10 μM), 48 hours
Description: After the completion of culture, rotenone-induced cell death was measured using Cytotoxicity LDH Assay Kit-WST (Dojindo Laboratories). […] The test was conducted twice, and the case where a concentration-dependent inhibitory effect on rotenone-induced cell death was able to be confirmed twice was rated as (++). If the inhibitory effect was confirmed in one of the two tests and no inhibitory effect was confirmed in the other test, the third test was conducted. In the third test, the case where the concentration-dependent inhibitory effect was able to be confirmed was rated as (+), and the case where no concentration-dependent inhibitory effect was able to be confirmed was rated as (±). The case where any inhibitory effect on rotenone-induced cell death was able to be confirmed in none of the two tests was rated as (−).

[12] = system: Kearns-Sayre syndrome (KSS) patient cells (ME130-1); assay: Test I: suppression of RSL-3-induced cell death, KSS patient cells; format: cell-based, human; settings: 10-140 nM RSL-3 coadded with drug; FIG. 10B
[13] = system: Leigh syndrome patient cells (KCMC10); assay: Test III: suppression of BSO-induced ferroptosis, Leigh syndrome patient cells; format: cell-based, human; settings: for cell death ascribable to ferroptosis induced by BSO: 100 μM BSO coadded with test compound, FIG. 32; for EC50: Homo sapiens, read-out: EC50 (50% effective concentration of the suppressive effect on cell death ascribable to ferroptosis induced by BSO); for EC50 / ferroptosis inhibitory effect (judged from EC50 value): Leigh syndrome patient cells (KCMC10), BSO; for ferroptosis inhibitory effect (judged from EC50 value): Table 3
Text: (§3) Apomorphine and idebenone approved as a therapeutic drug for Leber's hereditary optic neuropathy in the Europe were used as control drugs.
(§4) In the drawing, A depicts the results obtained using compounds D8, D9, D10, D18, D20, D26, and D36, and B depicts the results obtained using compounds D37, D38, D39, D40, D41, D42, and D43. In the drawing, the abscissa depicts test compounds, and the ordinate depicts the cell viability (%) of each treated plot when the number of live cells in a control non-supplemented with BSO is defined as 100%.

[14] = system: MELAS patient cells (ME169); assay: Test III: suppression of BSO-induced ferroptosis, MELAS patient cells; format: cell-based, human; settings: 80 μM BSO coadded with test compound; FIG. 33
Text: as §3, §4

[15] = system: MELAS patient cells (ME169); assay: Test III: suppression of RSL-3-induced ferroptosis, MELAS patient cells; format: cell-based, human; settings: 100 nM RSL-3 coadded with test compound; FIG. 35
Text: as §3
as §4, with “RSL-3” for “BSO”

[16] = system: Leigh syndrome patient cells (KCMC10); assay: Test III: suppression of RSL-3-induced ferroptosis, Leigh syndrome patient cells; format: cell-based, human; settings: 100 nM RSL-3 coadded with test compound; FIG. 34
Text: as §3
as §4, with “RSL-3” for “BSO”

SMILES: CN1CCc2cccc3c2[C@H]1Cc1ccc(O)c(O)c1-3 [Apomorphine, apomorphine]
- Dopamine D2 receptor binding activity, Activity intensity [1]: ++
- cell death induced by RSL-3 (cell viability) [2]: suppressed
- viability at 1 µM [3]: 67%
- cell death induced by RSL-3 (in words) [3]: suppressed
- LDH (LDH activity, cell death) [3]: 1.82
- cell death induced by RSL-3 (cell viability) [4]: the same or similar results
- cell death induced by BSO (cell viability) [5]: suppressed
- cell death induced by BSO (cell viability) [6]: the same or similar results
- cell death induced by BSO (cell viability) [7]: suppressed
- cell death induced by BSO (cell viability) [8]: the same or similar results
- cell death induced by RSL-3 (cell viability) ([9]; listed as Apo): the same or similar results; also recorded: same or similar tendency as above was more strongly confirmed
- cell death (cell viability) in normal cells, RSL-3 [10]: suppressed
- Inhibitory effect on rotenone-induced cell death [11]: ±
- cell death induced by RSL-3 (cell viability) [12]: the same or similar results

SMILES: CCCCS(=N)(=O)CCC(N)C(=O)O [BSO, L-buthionine-(S,R)-sulfoximine]
- cell death induced by BSO (cell viability) [5]: induced
- cell death induced by BSO (cell viability) [7]: induced

SMILES: COc1ccc2c(c1OC)C[C@@H]1c3c(cc4c(c3-2)OCO4)CCN1C [D8]
- cell death ascribable to ferroptosis induced by BSO [13]: markedly suppressed
- EC50 [13]: 180 nM
- ferroptosis inhibitory effect (judged from EC50 value) [13]: particularly high
- cell death ascribable to ferroptosis induced by BSO [14]: markedly suppressed
- dopamine D2 receptor binding activity (in words) [1]: no or little
- Dopamine D2 receptor binding activity, Activity intensity [1]: −
- cell death ascribable to ferroptosis induced by RSL-3 [15]: suppressed
- viability at 1 µM [3]: 56%
- LDH (LDH activity, cell death) [3]: 2.46
- cell death ascribable to ferroptosis induced by RSL-3 [16]: suppressed
- Inhibitory effect on rotenone-induced cell death [11]: ++

SMILES: COc1cc2c3c(c1O)-c1c(ccc(OC)c1OC)CC3N(C)CC2 (centres unmarked) [D26]
- cell death ascribable to ferroptosis induced by BSO [13]: markedly suppressed
- EC50 [13]: 289 nM
- cell death ascribable to ferroptosis induced by BSO [14]: markedly suppressed
- dopamine D2 receptor binding activity (in words) [1]: no or little
- Dopamine D2 receptor binding activity, Activity intensity [1]: −
- cell death ascribable to ferroptosis induced by RSL-3 [15]: suppressed
- viability at 1 µM [3]: 58%
- LDH (LDH activity, cell death) [3]: 4.85
- cell death ascribable to ferroptosis induced by RSL-3 [16]: suppressed
- Inhibitory effect on rotenone-induced cell death [11]: ±

SMILES: CCCCOc1ccc2c(c1O)-c1cccc3c1[C@@H](C2)N(C)CC3.Cl [D36]
- cell death ascribable to ferroptosis induced by BSO [13]: markedly suppressed
- EC50 [13]: 123 nM
- ferroptosis inhibitory effect (judged from EC50 value) [13]: particularly high
- cell death ascribable to ferroptosis induced by BSO [14]: markedly suppressed
- dopamine D2 receptor binding activity (in words) [1]: no or little
- Dopamine D2 receptor binding activity, Activity intensity [1]: −
- cell death ascribable to ferroptosis induced by RSL-3 [15]: suppressed
- viability at 1 µM [3]: 81%
- LDH (LDH activity, cell death) [3]: 0.91
- cell death ascribable to ferroptosis induced by RSL-3 [16]: suppressed
- Inhibitory effect on rotenone-induced cell death [11]: ++

SMILES: CC(=O)N(O)CCCCCNC(=O)CCC(=O)N(O)CCCCCNC(=O)CCC(=O)N(O)CCCCCN [DFO, deferoxamine]
- cell death induced by BSO (cell viability) [7]: suppressed
- cell death induced by RSL-3 (cell viability) [9]: the same or similar results

SMILES: CCOC(=O)c1ccc(NC2CCCCC2)c(N)c1 [Fer-1, ferrostatin-1]
- cell death induced by RSL-3 (cell viability) [2]: suppressed
- cell death induced by RSL-3 (in words) [3]: suppressed
- LDH (LDH activity, cell death) [3]: 2.50
- MTT (cell proliferation and cell viability) [3]: 0.86
- cell death induced by RSL-3 (cell viability) [4]: the same or similar results
- cell death induced by BSO (cell viability) [7]: suppressed
- cell death induced by RSL-3 (cell viability) [9]: the same or similar results; also recorded: same or similar tendency as above was more strongly confirmed
- cell death (cell viability) in normal cells, RSL-3 [10]: suppressed
- cell death induced by RSL-3 (cell viability) [12]: the same or similar results

SMILES: CC(C)S(=O)(=O)c1ccc2nccc(Nc3ccc4scnc4c3)c2c1 [GSK872]
- viability at 1 µM [3]: 38%
- LDH (LDH activity, cell death) [3]: 10.84
- cell death induced by BSO (cell viability) [7]: not suppressed
- cell death induced by RSL-3 (cell viability) [9]: same or similar tendency as above was more strongly confirmed
- cell death (cell viability) in normal cells, RSL-3 [10]: similarly induced

SMILES: COC1=C(OC)C(=O)C(CCCCCCCCCCO)=C(C)C1=O [Ide, idebenone]
- cell death induced by BSO (cell viability) [5]: suppressed
- cell death induced by BSO (cell viability) [6]: the same or similar results
- cell death induced by BSO (cell viability) [8]: the same or similar results

SMILES: Clc1cccc(CN=C2Nc3ccccc3NC23CCNCC3)c1 [Lip-1, liproxstatin]
- cell death induced by BSO (cell viability) [7]: suppressed
- cell death induced by RSL-3 (cell viability) [9]: the same or similar results

SMILES: COC(=O)c1ccc([C@@H]2c3[nH]c4ccccc4c3C[C@@H](C(=O)OC)N2C(=O)CCl)cc1 [RSL-3, reference compound]
- cell death induced by RSL-3 (cell viability) [2]: induced
- cell death induced by RSL-3 (in words) [3]: induced
- LDH (LDH activity, cell death) [3]: 10.67
- MTT (cell proliferation and cell viability) [3]: 0.45
- cell death (cell viability) in normal cells, RSL-3 [10]: induced
